Test results: ChEMBL document CHEMBL1909046, “DrugMatrix in vitro pharmacology data”

Key:
[1] = molecular target: 5-hydroxytryptamine receptor 2B (Homo sapiens, UniProt P41595); assay type: cell membranes, CHO-K1, Membrane; conditions: cho-k1; also: in other assays of this panel Not Active means under 50% inhibition at 10 µM
Carbonic anhydrase 2 = Carbonic anhydrase 2 (Homo sapiens, UniProt P00918); assay: DRUGMATRIX: Carbonic Anhydrase II enzyme inhibition (substrate: 4-Nitrophenyl acetate (4-NPA)); assay type: tissue-based, Erythrocyte; conditions: Not Active = under 50% inhibition at 10 µM
Mu-type opioid receptor = Mu-type opioid receptor (Homo sapiens, UniProt P35372); assay: DRUGMATRIX: Opiate mu (OP3, MOP) radioligand binding (ligand: [3H] Diprenorphine); assay type: cell membranes, CHO-K1, Membrane; conditions: cho-k1; Not Active = under 50% inhibition at 10 µM
[2] = molecular target: cGMP-specific 3',5'-cyclic phosphodiesterase (Homo sapiens, UniProt O76074); assay: DRUGMATRIX: Phosphodiesterase PDE5 enzyme inhibition (substrate: [3H]cGMP + cGMP); assay type: tissue-based, Platelet; conditions: platelet; Not Active = under 50% inhibition at 10 µM
[3] = molecular target: T1, Angiotensin-converting enzyme (Oryctolagus cuniculus, UniProt P12822); assay: biochemical; assay type: tissue-based, Lung;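 also: enzymatic inhibition of angiotensin-converting enzyme measured with FAPGG as the substrate; in other assays of this panel Not Active means under 50% inhibition at 10 µM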
T1 sequence (P12822 whole entry): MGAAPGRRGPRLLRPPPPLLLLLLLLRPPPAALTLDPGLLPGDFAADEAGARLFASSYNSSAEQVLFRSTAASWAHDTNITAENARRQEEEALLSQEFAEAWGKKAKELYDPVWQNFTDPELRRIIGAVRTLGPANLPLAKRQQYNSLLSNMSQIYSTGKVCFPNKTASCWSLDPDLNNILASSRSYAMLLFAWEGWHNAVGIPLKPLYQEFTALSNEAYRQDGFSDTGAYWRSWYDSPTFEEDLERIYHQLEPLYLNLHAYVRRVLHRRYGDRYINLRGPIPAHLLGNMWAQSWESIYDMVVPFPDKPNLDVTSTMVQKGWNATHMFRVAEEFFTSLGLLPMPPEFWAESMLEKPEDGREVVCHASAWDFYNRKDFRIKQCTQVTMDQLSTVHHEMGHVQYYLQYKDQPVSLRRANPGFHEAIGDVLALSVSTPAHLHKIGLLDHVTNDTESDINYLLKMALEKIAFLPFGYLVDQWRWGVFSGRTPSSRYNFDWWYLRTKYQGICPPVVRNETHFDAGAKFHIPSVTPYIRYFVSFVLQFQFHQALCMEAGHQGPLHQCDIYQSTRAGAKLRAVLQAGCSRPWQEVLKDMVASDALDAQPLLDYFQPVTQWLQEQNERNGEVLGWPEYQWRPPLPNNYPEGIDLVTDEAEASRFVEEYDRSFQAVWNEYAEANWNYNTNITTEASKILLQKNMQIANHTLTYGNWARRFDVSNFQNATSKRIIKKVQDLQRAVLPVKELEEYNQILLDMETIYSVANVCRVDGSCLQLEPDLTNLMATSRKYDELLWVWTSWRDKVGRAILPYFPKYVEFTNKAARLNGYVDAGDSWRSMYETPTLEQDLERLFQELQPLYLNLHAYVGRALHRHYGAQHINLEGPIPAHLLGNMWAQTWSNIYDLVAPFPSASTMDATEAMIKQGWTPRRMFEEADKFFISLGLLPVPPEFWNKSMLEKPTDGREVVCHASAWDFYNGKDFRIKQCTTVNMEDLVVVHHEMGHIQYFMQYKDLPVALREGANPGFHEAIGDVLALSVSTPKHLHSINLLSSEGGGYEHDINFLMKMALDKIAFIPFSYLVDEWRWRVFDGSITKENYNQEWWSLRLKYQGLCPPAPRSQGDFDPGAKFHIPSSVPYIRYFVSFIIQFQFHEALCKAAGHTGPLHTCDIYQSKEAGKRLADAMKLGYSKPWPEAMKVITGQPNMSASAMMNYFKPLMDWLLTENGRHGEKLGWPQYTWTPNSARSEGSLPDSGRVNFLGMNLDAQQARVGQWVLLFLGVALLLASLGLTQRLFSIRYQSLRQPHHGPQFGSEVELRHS

Acetylcholinesterase = Acetylcholinesterase (Homo sapiens, UniProt P22303); assay: DRUGMATRIX: Acetylcholinesterase enzyme inhibition (substrate: acetylthiocholine); assay type: cell-based, HEK293; conditions: Not Active = under 50% inhibition at 10 µM
Acetylcholinesterase, sequence (P22303 whole entry): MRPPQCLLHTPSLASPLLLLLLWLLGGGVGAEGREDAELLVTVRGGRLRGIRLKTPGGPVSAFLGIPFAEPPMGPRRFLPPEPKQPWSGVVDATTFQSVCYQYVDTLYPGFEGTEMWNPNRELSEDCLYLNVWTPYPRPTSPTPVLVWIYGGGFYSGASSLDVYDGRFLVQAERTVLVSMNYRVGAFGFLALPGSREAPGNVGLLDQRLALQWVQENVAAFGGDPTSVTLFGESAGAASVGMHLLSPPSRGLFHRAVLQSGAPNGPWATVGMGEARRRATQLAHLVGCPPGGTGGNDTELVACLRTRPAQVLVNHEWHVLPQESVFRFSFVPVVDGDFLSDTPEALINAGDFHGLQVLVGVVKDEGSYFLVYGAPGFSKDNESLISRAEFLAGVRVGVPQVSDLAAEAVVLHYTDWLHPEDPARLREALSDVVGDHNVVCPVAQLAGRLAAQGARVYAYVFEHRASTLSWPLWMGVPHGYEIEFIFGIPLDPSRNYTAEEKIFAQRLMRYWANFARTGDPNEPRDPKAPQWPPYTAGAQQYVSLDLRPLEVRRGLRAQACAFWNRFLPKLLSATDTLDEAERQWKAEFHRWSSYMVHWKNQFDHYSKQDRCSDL

Mu-type opioid receptor, sequence (P35372 whole entry): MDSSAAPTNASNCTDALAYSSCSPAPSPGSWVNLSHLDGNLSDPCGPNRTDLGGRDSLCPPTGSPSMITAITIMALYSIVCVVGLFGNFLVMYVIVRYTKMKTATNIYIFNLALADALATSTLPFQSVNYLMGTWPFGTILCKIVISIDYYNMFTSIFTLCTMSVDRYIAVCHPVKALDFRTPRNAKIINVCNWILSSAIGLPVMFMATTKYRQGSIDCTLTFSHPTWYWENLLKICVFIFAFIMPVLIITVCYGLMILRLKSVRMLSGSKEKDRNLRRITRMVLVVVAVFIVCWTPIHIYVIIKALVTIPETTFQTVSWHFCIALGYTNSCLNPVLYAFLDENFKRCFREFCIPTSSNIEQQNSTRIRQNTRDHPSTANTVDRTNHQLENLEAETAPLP
5-hydroxytryptamine receptor 2B, sequence (P41595 whole entry): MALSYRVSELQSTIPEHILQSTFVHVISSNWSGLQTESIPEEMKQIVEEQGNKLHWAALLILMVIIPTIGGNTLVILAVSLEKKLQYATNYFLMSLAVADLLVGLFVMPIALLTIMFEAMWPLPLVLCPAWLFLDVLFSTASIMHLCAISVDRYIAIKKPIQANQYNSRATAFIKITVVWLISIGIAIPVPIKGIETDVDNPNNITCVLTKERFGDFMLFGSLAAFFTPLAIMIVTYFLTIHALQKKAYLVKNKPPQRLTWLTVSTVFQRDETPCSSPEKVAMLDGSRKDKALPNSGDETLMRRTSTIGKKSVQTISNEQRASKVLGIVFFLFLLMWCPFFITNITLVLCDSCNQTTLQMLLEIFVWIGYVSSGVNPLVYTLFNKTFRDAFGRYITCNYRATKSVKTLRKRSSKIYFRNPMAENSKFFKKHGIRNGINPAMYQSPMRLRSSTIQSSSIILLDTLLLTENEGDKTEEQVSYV

Molecule	IC50 [1]	IC50 (Carbonic anhydrase 2; erythrocyte)	IC50 (Mu-type opioid receptor)	IC50 [2]	IC50 [3]	IC50 (Acetylcholinesterase; hek293)	IC50 (Carbonic anhydrase 2; read-out: IC50) [µM]	IC50 (Acetylcholinesterase; read-out: IC50) [µM]	IC50 ([3]; read-out: IC50) [µM]	Ki [1]	Ki (Carbonic anhydrase 2; erythrocyte)	Ki [2]	Ki [3]	Ki (Acetylcholinesterase; hek293)
Oc1ccccc1 [PHENOL]	Not Active	Not Active	Not Active	Not Active	Not Active	Not Active	–	–	–	–	–	–	–	–
Oc1ncnc2[nH]ncc12 [ALLOPURINOL]	Not Active	Not Active	Not Active	Not Active	Not Active	Not Active	–	–	–	–	–	–	–	–
COC(=O)Nc1nc2ccc(Sc3ccccc3)cc2[nH]1 [FENBENDAZOLE]	Not Active	Not Active	Not Active	Not Active	Not Active	Not Active	–	–	–	–	–	–	–	–
C[C@@H]1[C@H](O)[C@@H](C)/C=C/C=C/C=C/C=C/C=C/C=C/C=C/[C@H](O[C@@H]2O[C@H](C)[C@@H](O)[C@H](N)[C@@H]2O)C[C@@H]2O[C@](O)(C[C@@H](O)C[C@@H](O)[C@H](O)CC[C@@H](O)C[C@@H](O)CC(=O)O[C@H]1C)C[C@H](O)[C@H]2C(=O)O [AMPHOTERICIN B]	Not Active	Not Active	Not Active	Not Active	Not Active	Not Active	–	–	–	–	–	–	–	–
CCO [ALCOHOL]	Not Active	Not Active	Not Active	Not Active	Not Active	Not Active	–	–	–	–	–	–	–	–
COc1cc(/C=C/C(=O)O)ccc1O [FERULATE]	Not Active	Not Active	Not Active	Not Active	Not Active	Not Active	–	–	–	–	–	–	–	–
CNC[C@H](O)c1ccc(O)c(O)c1 [EPINEPHRINE]	Not Active	Not Active	Not Active	Not Active	Not Active	Not Active	–	–	–	–	–	–	–	–
CC1(COc2ccc(CC3SC(=O)NC3=O)cc2)CCCCC1 (configuration not stated) [CIGLITAZONE]	Not Active	–	Not Active	Not Active	Not Active	–	0.086	15	–	–	–	–	–	–
NC(N)=Nc1nc(CSCCC(N)=NS(N)(=O)=O)cs1 [FAMOTIDINE]	Not Active	Not Active	Not Active	Not Active	Not Active	Not Active	–	–	–	–	–	–	–	–
Nc1nc(F)nc2c1ncn2[C@@H]1O[C@H](CO)[C@@H](O)[C@@H]1O [FLUDARABINE]	Not Active	Not Active	Not Active	Not Active	Not Active	Not Active	–	–	–	–	–	–	–	–
NC(=O)NC(=O)Cc1ccccc1 [PHENACEMIDE]	Not Active	Not Active	Not Active	Not Active	Not Active	Not Active	–	–	–	–	–	–	–	–
Nc1ccc(C(=O)O)c(O)c1 [AMINOSALICYLIC ACID]	Not Active	Not Active	Not Active	Not Active	Not Active	Not Active	–	–	–	–	–	–	–	–
O=c1[nH]cnc2c1ncn2[C@H]1CC[C@@H](CO)O1 [DIDANOSINE]	Not Active	Not Active	Not Active	Not Active	Not Active	Not Active	–	–	–	–	–	–	–	–
NC(=O)CN1CCCC1=O	Not Active	Not Active	Not Active	Not Active	Not Active	Not Active	–	–	–	–	–	–	–	–
Clc1cc(Cl)c(OCC#CI)cc1Cl [HALOPROGIN]	Not Active	Not Active	Not Active	Not Active	Not Active	Not Active	–	–	–	–	–	–	–	–
O=C(NCCN1CCOCC1)c1ccc(Cl)cc1 [MOCLOBEMIDE]	Not Active	Not Active	Not Active	Not Active	Not Active	Not Active	–	–	–	–	–	–	–	–

Molecule	IC50 [1]	IC50 (Carbonic anhydrase 2; erythrocyte)	IC50 (Mu-type opioid receptor)	IC50 [2]	IC50 [3]	IC50 (Acetylcholinesterase; hek293)	IC50 (Carbonic anhydrase 2; read-out: IC50) [µM]	IC50 (Acetylcholinesterase; read-out: IC50) [µM]	IC50 ([3]; read-out: IC50) [µM]	Ki [1]	Ki (Carbonic anhydrase 2; erythrocyte)	Ki [2]	Ki [3]	Ki (Acetylcholinesterase; hek293)
Cc1c(N)nc([C@H](CC(N)=O)NC[C@H](N)C(N)=O)nc1C(=O)N[C@H](C(=O)N[C@H](C)[C@@H](O)[C@H](C)C(=O)N[C@H](C(=O)NCCc1nc(-c2nc(C(=O)NCCC[S+](C)C)cs2)cs1)[C@@H](C)O)[C@@H](O[C@@H]1O[C@@H](CO)[C@@H](O)[C@H](O)[C@@H]1O[C@H]1O[C@H](CO)[C@@H](O)[C@H](OC(N)=O)[C@@H]1O)c1c[nH]cn1.[Br-] [BLEOMYCIN A2]	Not Active	Not Active	Not Active	Not Active	–	Not Active	–	–	0.588	–	–	–	–	–
C=CCO [ALLYL ALCOHOL]	Not Active	Not Active	–	Not Active	Not Active	Not Active	–	–	–	–	–	–	–	–
POVIDONE	Not Active	Not Active	–	Not Active	Not Active	Not Active	–	–	–	Not Active	Not Active	Not Active	Not Active	Not Active
CHROMIC CHLORIDE	Not Active	Not Active	–	Not Active	Not Active	Not Active	–	–	–	Not Active	Not Active	Not Active	Not Active	Not Active
O=C(O)CNCP(=O)(O)O [GLYPHOSATE]	Not Active	Not Active	–	Not Active	Not Active	Not Active	–	–	–	–	–	–	–	–
NS(=O)(=O)c1cc(C(=O)O)c(NCc2ccco2)cc1Cl [FUROSEMIDE]	Not Active	–	Not Active	Not Active	Not Active	Not Active	–	–	–	–	–	–	–	–
CARBOXYMETHYLCELLULOSE	Not Active	Not Active	–	Not Active	Not Active	Not Active	–	–	–	Not Active	Not Active	Not Active	Not Active	Not Active
CCN1C[C@]2(COC)[C@H](O)C[C@H](OC)[C@@]34[C@@H]5C[C@@]6(O)[C@H](OC(=O)c7ccccc7)[C@@H]5[C@@](OC(C)=O)([C@@H]([C@H](OC)[C@H]23)[C@@H]14)[C@@H](O)[C@@H]6OC [ACONITINE]	Not Active	Not Active	–	Not Active	Not Active	Not Active	–	–	–	–	–	–	–	–
CC(N)Cc1c[nH]c2ccc(OCc3cccs3)cc12 (configuration not stated) [BW-723C86]	–	Not Active	Not Active	Not Active	Not Active	Not Active	–	–	–	–	–	–	–	–
C=C(Cl)Cl [1,1-DICHLOROETHENE]	Not Active	Not Active	–	Not Active	Not Active	Not Active	–	–	–	–	–	–	–	–
Nc1ccc(Cc2ccc(N)cc2)cc1	Not Active	Not Active	–	Not Active	Not Active	Not Active	–	–	–	–	–	–	–	–
COPPER(II) OXIDE	Not Active	Not Active	–	Not Active	Not Active	Not Active	–	–	–	Not Active	Not Active	Not Active	Not Active	Not Active
COc1cc([C@@H]2c3cc4c(cc3[C@H](O)[C@H]3COC(=O)[C@H]23)OCO4)cc(OC)c1OC [PODOFILOX]	Not Active	Not Active	–	Not Active	Not Active	Not Active	–	–	–	–	–	–	–	–
ClC1=C(Cl)[C@]2(Cl)[C@@H]3[C@@H]4C[C@@H]([C@H]5O[C@@H]45)[C@@H]3[C@@]1(Cl)C2(Cl)Cl [DIELDRIN]	Not Active	Not Active	–	Not Active	Not Active	Not Active	–	–	–	–	–	–	–	–
C=CCN1CC[C@]23c4c5ccc(O)c4O[C@H]2/C(=N/N=C2\CC[C@@]4(O)[C@H]6Cc7ccc(O)c8c7[C@@]4(CCN6CC=C)[C@H]2O8)CC[C@@]3(O)[C@H]1C5 [NALOXONAZINE]	Not Active	Not Active	–	Not Active	Not Active	Not Active	–	–	–	–	–	–	–	–
